The values below are quoted from earlier work in patent US6653081B2, “Methods for monitoring antiretroviral therapy and guiding therapeutic decision in the treatment of HIV/AIDS” (ViroLogic, Inc., priority 2000, dated 2003).

The test system of the data set is codon 181 mutant HIV-1. To be noted: cited from earlier work.

Turning to `CCc1cc(CCc2nc3ccccc3o2)c(=O)[nH]c1C` [L-696,229], the “susceptibility / activity in the presence of the Y181C mutation” value is listed as “reduced susceptibility”.
For the compound `CCc1cc(NCc2nc3c(Cl)ccc(Cl)c3o2)c(O)nc1C` [L-697,661], the “susceptibility / activity in the presence of the Y181C mutation” value is “reduced susceptibility”.
